Measured values from US4035507A, “Novel, transient pro-drug forms of L-DOPA to treat Parkinson's disease” (Interx Research Corporation, priority 1976, dated 1977).

Legend:
[1] = Blood concentration of L-DOPA following oral administration of L-DOPA or an L-DOPA derivative to Beagle dogs; conditions: three Beagle dogs; for L-DOPA at the peak / area under the curve / time for reaching the peak: L-DOPA in blood after oral administration; for [L-DOPA] (μg/ml) at time (hours) 0.5 / [L-DOPA] (μg/ml) at time (hours) 1.0 / [L-DOPA] (μg/ml) at time (hours) 2.0 / [L-DOPA] (μg/ml) at time (hours) 4.0 / [L-DOPA] (μg/ml) at time (hours) 6.0 / [L-DOPA] (μg/ml) at time (hours) 3.0 / [L-DOPA] (μg/ml) at time (hours) 1.5: blood; for [L-DOPA] (μg/ml) at time (hours) 0.5: 0.5 hours after oral administration of 0.1 of L-DOPA or equivalent amount of derivative; for [L-DOPA] (μg/ml) at time (hours) 1.0: 1.0 hours after oral administration of 0.1 of L-DOPA or equivalent amount of derivative; for [L-DOPA] (μg/ml) at time (hours) 2.0: 2.0 hours after oral administration of 0.1 of L-DOPA or equivalent amount of derivative; for [L-DOPA] (μg/ml) at time (hours) 4.0: 4.0 hours after oral administration of 0.1 of L-DOPA or equivalent amount of derivative; for [L-DOPA] (μg/ml) at time (hours) 6.0: 6.0 hours after oral administration of 0.1 of L-DOPA or equivalent amount of derivative; for [L-DOPA] (μg/ml) at time (hours) 3.0: 3.0 hours after oral administration of 0.1 of L-DOPA or equivalent amount of derivative; for [L-DOPA] (μg/ml) at time (hours) 1.5: 1.5 hours after oral administration of 0.1 of L-DOPA or equivalent amount of derivative;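 for all read-outs here: dogs of both sexes, 12 to 14 Kg body weight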
Text: Reference to (a) refers to the values obtained from three Beagle dogs for each compound tested, the Beagle dogs being of both sexes and weighing from 12 to 14 Kg.
Reference to [L-DOPA] refers to the concentration of L-DOPA

[2] = Coutinaho, Spiegel et al. (1971); Weiss and Rossi (1963); cited from earlier work

Row | SMILES | L-DOPA at the peak [1] [µg/mL] | area under the curve [1] [µg/h/mL] | time for reaching the peak [1] [h] | [L-DOPA] (μg/ml) at time (hours) 0.5 [1] [µg/mL] | [L-DOPA] (μg/ml) at time (hours) 1.0 [1] [µg/mL] | [L-DOPA] (μg/ml) at time (hours) 2.0 [1] [µg/mL] | [L-DOPA] (μg/ml) at time (hours) 4.0 [1] [µg/mL] | [L-DOPA] (μg/ml) at time (hours) 6.0 [1] [µg/mL] | [L-DOPA] (μg/ml) at time (hours) 3.0 [1] [µg/mL] | [L-DOPA] (μg/ml) at time (hours) 1.5 [1] [µg/mL] | half-life of L-DOPA in the bloodstream [2]
1 | N[C@@H](Cc1ccc(O)c(O)c1)C(=O)O [(0), 3,4-dihydroxy-L-phenylalanine, reference compound] | 0.9 | 2.6 | 1.8 | 0.14 | 0.64 | 0.87 | 0.22 | 0.11 | – | – | approximately 45 minutes
2 | COC(=O)[C@@H](N)Cc1ccc(OC(C)=O)c(OC(C)=O)c1.Cl [Compound (I), 3,4-diacetyloxy-L-phenylalanine-methyl ester, HCl] | 1.6 | – | – | – | – | 0.39 | – | – | 0.12 | – | –
3 | CC(=O)Oc1ccc(C[C@H](N)C(=O)OCc2ccccc2)cc1OC(C)=O.Cl [Compound (II), 3,4-diacetyloxy-L-phenylalanine-benzyl ester hydrochloride] | 2.3 | 5.96 | 0.5 | 1.71 | 1.30 | 0.55 | 0.14 | 0.05 | 0.20 | 1.08 | –
4 | CC(=O)Oc1ccc(C[C@H](N)C(=O)NCC(=O)O)cc1OC(C)=O.Cl [Compound (V), 3,4-diacetyloxy-L-phenylalanyl-glycine hydrochloride] | 1.8 | 5.30 | 1.2 | 0.26 | 1.30 | 0.80 | 0.03 | 0 | 0.23 | 1.62 | –

Second part, led by results:

Row | L-DOPA at the peak [1] [µg/mL] | area under the curve [1] [µg/h/mL] | time for reaching the peak [1] [h] | [L-DOPA] (μg/ml) at time (hours) 0.5 [1] [µg/mL] | [L-DOPA] (μg/ml) at time (hours) 1.0 [1] [µg/mL] | [L-DOPA] (μg/ml) at time (hours) 2.0 [1] [µg/mL] | [L-DOPA] (μg/ml) at time (hours) 4.0 [1] [µg/mL] | [L-DOPA] (μg/ml) at time (hours) 6.0 [1] [µg/mL] | [L-DOPA] (μg/ml) at time (hours) 3.0 [1] [µg/mL] | [L-DOPA] (μg/ml) at time (hours) 1.5 [1] [µg/mL] | SMILES | half-life of L-DOPA in the bloodstream [2]
5 | 2.4 | 7.25 | 0.75 | 1.34 | 1.95 | 0.43 | 0.13 | 0.02 | 0.27 | 1.21 | CC(=O)Oc1ccc(C[C@H](NC(=O)CN)C(=O)O)cc1OC(C)=O.Cl [Compound (III), glycyl-3,4-diacetyloxy-L-phenylalanine-hydrochloride] | –
6 | 1.7 | 3.38 | 0.80 | 0.79 | 1.17 | 0.33 | 0.02 | 0 | 0.08 | 0.51 | COC(=O)[C@H](Cc1ccc(OC(C)=O)c(OC(C)=O)c1)NC(=O)CN.Cl [Compound (IV), glycyl-3,4-diacetyloxy-L-phenylalanine-methyl ester hydrochloride] | –
